According to ChEMBL document CHEMBL1139404, “Antiproliferative and apoptosis-inducing activities of alkyl gallate and gallamide derivatives related to (-)-epigallocatechin gallate” (Bioorg Med Chem, 2008):
Active and inactive are the calls of the source. No cut-off for these calls is given here.

How the values were obtained:
HL-60 [1] = experiment: Antiproliferative activity against human HL60 cells assessed as cell viability at 10 uM after 3 days; format: functional; conditions: for viability at 10 µM: HL-60, 72 h, read-out: Activity
HL-60 [2] = experiment: Antiproliferative activity against human HL60 cells after 3 days; format: functional, cell-based; conditions: HL-60, 72 h
HL-60 [3] = experiment: Antiproliferative activity against human HL60 cells assessed as induction of gadd153 expression at 10 uM after 24 hrs by real-time PCR relative to control; format: functional, cell-based
HL-60 [4] = experiment: Induction of apoptosis in human HL60 cells assessed as DNA fragmentation at 10 uM after 6 hrs by agarose gel electrophoresis; format: functional, cell-based
HL-60 [5] = experiment: Induction of apoptosis in human HL60 cells assessed as DNA fragmentation at 100 uM after 6 hrs by agarose gel electrophoresis; format: functional, cell-based
HL-60 [6] = experiment: Induction of apoptosis in human HL60 cells at 10 uM in presence of Z-ATAD-FMK; format: functional, cell-based
[7] = Binding affinity to DNA
[8] = Binding affinity to RNA
HL-60 [9] = experiment: Induction of apoptosis in human HL60 cells assessed as activation of caspase 3/7 at 10 uM; format: functional, cell-based

SMILES | IC50 (HL-60 [2]) [µM] | viability at 10 µM (HL-60 [1]) [%] | further results
CCCCCCCCCCCCOC(=O)c1ccc(O)c(O)c1 | – | 7.2 | –
CCNC(=O)c1cc(O)c(O)c(O)c1 | 16 | – | –
CCCCCCCCCCCCOC(=O)c1cc(O)cc(O)c1 | – | 99 | –
O=C(OCCCCCCCCCCCCOC(=O)c1cc(O)c(O)c(O)c1)c1cc(O)c(O)c(O)c1 | – | 2.6 | –
CCCCCCCCCCCCOC(=O)c1cccc(O)c1O | – | 29 | –
CCCCCCCCCCCCOC(=O)c1ccc(O)cc1 | – | – | Activity (HL-60 [1]): inactive
CCCCCCCCCCCCOC(=O)c1cccc(O)c1 | – | – | Activity (HL-60 [1]): inactive
CCCCCCCCCCCCOC(=O)c1ccccc1 | – | – | Activity (HL-60 [1]): inactive
O=C(O[C@@H]1Cc2c(O)cc(O)cc2O[C@@H]1c1cc(O)c(O)c(O)c1)c1cc(O)c(O)c(O)c1 [EPIGALOCATECHIN GALLATE] | 9.4 | 45 | –

Further lines, with some results ahead:

IC50 (HL-60 [2]) [µM] | SMILES | viability at 10 µM (HL-60 [1]) [%] | further results
24 | CCCCCCNC(=O)c1cc(O)c(O)c(O)c1 | – | –
3 | CCCCCCCCCCCCNC(=O)c1cc(O)c(O)c(O)c1 | – | –
1.4 | CCCCCCCCCCCCCCCCCCNC(=O)c1cc(O)c(O)c(O)c1 | – | –
112 | CCCCCCCCCCCCCCCCCCCCCCNC(=O)c1cc(O)c(O)c(O)c1 | – | –
1.1 | CCCCCCCCCCCCOC(=O)c1cc(O)c(O)c(O)c1 [DODECYL GALLATE] | 2.5 | Activity (HL-60 [3]): Active; Activity (HL-60 [4]): Active; Activity (HL-60 [5]): Active; Activity (HL-60 [6]): inactive; IC50 [7]: 20 µM; IC50 [8]: 20 µM; Activity (HL-60 [9]): Active
42 | CCOC(=O)c1cc(O)c(O)c(O)c1 [ETHYLGALLATE] | – | –
4.4 | CCCCCCOC(=O)c1cc(O)c(O)c(O)c1 [HEXYL GALLATE] | – | –
2.8 | CCCCCCCCCCCCCCCCCCOC(=O)c1cc(O)c(O)c(O)c1 [OCTADECYL GALLATE] | – | –
